According to article PMC9033141, “Beta and Gamma Amino Acid-Substituted Benzenesulfonamides as Inhibitors of Human Carbonic Anhydrases” (Pharmaceuticals, 2022):
Like-named read-outs stand apart in the source and are kept apart here.

Key:
CAXII = biological target: T1, CAXII (Homo sapiens, UniProt O43570); assay: biochemical; assay type: binding; conditions: for Intrinsic Gibbs energy change (ΔGint), CAXII: 37 °C, calculated (Equation 5); for Kd: FTSA, pH 7.0, 37 °C, read-out: Observed Dissociation Constant (Kd_obs), CAXII
T1 construct: made in house; host or cells: E. coli
T1 sequence (O43570 25-354): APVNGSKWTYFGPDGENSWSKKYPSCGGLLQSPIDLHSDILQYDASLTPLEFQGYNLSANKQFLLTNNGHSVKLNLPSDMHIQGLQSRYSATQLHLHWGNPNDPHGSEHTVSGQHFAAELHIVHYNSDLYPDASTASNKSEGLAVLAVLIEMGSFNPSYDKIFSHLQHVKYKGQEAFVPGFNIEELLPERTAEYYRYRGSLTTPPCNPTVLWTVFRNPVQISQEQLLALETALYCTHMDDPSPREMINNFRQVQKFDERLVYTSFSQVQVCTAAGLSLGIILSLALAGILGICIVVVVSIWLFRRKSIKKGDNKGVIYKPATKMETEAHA

CAVI = biological target: T2, CAVI (Homo sapiens, UniProt P23280); assay: Fluorescent thermal shift assay (FTSA), CAVI; assay type: binding; conditions: for Intrinsic Gibbs energy change (ΔGint), CAVI: 37 °C, calculated (Equation 5); for Kd: FTSA, pH 7.0, 37 °C, read-out: Observed Dissociation Constant (Kd_obs), CAVI;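 for all read-outs here: human CAVI expressed in mammalian cells, ANS fluorescence tracked during thermal unfolding, melting temperature fitted against ligand concentration, intrinsic values corrected for deprotonated sulfonamide and Zn-bound water fractions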
T2 construct: made in house
T2 sequence (P23280 21-290 limits assumed): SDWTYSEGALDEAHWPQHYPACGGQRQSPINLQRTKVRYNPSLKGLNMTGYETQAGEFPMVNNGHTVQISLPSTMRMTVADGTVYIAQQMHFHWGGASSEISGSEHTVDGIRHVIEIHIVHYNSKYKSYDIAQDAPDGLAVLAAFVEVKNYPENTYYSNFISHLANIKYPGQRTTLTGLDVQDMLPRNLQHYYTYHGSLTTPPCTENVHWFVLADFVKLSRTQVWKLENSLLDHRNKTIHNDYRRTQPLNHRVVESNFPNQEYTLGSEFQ
Protocol: (§1) Human CA isozymes were expressed in E. coli (CAI, II, III, IV, VA, VB, VII, XII, XIII, XIV) or mammalian cells (CAVI and CAIX), chromatographically purified following the published protocols [47], and stored at −80 °C. The protein concentration was determined by UV absorption at 280 nm using Beer–Lambert law.
(§2) The QIAGEN Rotor-Gene Q was used to carry out the experiments, with a blue channel used for excitation (365 nm) and detection (460 nm). FTSA in this case relies on an extrinsic probe, 8-anilino-1-naphthalenesulfonate (ANS), to detect the fluorescence increase during protein denaturation, from which protein melting temperature (Tm) can be determined. […] The observed affinity of ligands for CAs was determined by plotting the Tm as a function of ligand concentration and then fitting a curve as described previously [48]. […] Samples were heated from 25 °C to 99 °C at the speed of 1 °C/min.
(§3) The intrinsic thermodynamic parameters were calculated as described in [40]. The intrinsic reaction of inhibitor binding to CA is shown in Equation (1). […] It is known that CA proteins bind sulfonamides only when water molecules are coordinated to the Zn(II) ion, and sulfonamides only bind to CA proteins when their amino group is deprotonated (confirmed by neutron crystallography [53, 54, 55]):(1) CA Zn^II−H2O+RSO2NH^−⇄ CA Zn^II−NH SO2R+H2O
(§4) When calculating Kd_int values, these protein and ligand fractions from Equation (1) have to be accounted for (Equations (2) and (3)). The intrinsic dissociation constant is calculated by multiplying Kd_obs value by the corresponding fractions of protein and ligand (Equation (4)). (2) fRSO2NH^−=10^pH−pKa_RSO2NH2/1+10^pH−pKa_RSO2NH2 (3) fCAZnH2O=1−10^pH−pKa_CAZnH2O/1+10^pH−pKa_CAZnH2O (4) Kd_int=Kd_obs×fRSO2NH^−×fCAZnH2O (5) ΔGint0=RTlnKd_int
(§5) The intrinsic standard Gibbs energy changes upon binding were calculated using Equation (5). Here, R—universal ideal gas constant (8.3144 J/mol·K), T—absolute temperature (310.15 K).

CAXIII [1] = biological target: T3, CAXIII (Homo sapiens, UniProt Q8N1Q1); assay: biochemical; conditions: Observed Dissociation Constant (Kd_obs), FTSA, pH 7.0, 37 °C;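 note: recombinant human CAXIII melting temperature tracked by ANS fluorescence in thermal shift assay, Tm fitted against ligand concentration, intrinsic value corrects Kd for deprotonated sulfonamide and Zn-bound water fractions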
T3 sequence (Q8N1Q1 whole entry): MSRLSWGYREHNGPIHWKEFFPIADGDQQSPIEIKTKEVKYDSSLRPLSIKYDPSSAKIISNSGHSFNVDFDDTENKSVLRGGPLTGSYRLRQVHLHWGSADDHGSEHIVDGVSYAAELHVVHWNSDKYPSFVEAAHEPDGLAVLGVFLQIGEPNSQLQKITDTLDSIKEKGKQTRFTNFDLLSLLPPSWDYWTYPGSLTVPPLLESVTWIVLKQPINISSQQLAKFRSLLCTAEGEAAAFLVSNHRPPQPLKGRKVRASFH

CAI = biological target: T4, CAI (Homo sapiens, UniProt P00915); assay: biochemical; assay type: binding; conditions: for Intrinsic Gibbs energy change (ΔGint), CAI: 37 °C, calculated (Equation 5); for Kd: FTSA, pH 7.0, 37 °C, read-out: Observed Dissociation Constant (Kd_obs), CAI
T4 construct: made in house; host or cells: E. coli
T4 sequence (P00915 whole entry): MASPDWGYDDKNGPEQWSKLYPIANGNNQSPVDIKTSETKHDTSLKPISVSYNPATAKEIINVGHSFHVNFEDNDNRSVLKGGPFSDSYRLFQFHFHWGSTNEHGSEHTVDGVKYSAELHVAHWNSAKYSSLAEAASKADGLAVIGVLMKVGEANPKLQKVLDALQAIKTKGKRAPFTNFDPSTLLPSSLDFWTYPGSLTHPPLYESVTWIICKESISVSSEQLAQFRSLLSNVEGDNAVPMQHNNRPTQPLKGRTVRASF
Protocol: as §1, §2
(§6) The intrinsic thermodynamic parameters were calculated as described in [40]. The intrinsic reaction of inhibitor binding to CA is shown in Equation (1).
as §4, §5

CAIII = biological target: T5, CAIII (Homo sapiens, UniProt P07451); assay: Fluorescent thermal shift assay (FTSA), CAIII; assay type: binding; conditions: for Intrinsic Gibbs energy change (ΔGint), CAIII: 37 °C, calculated (Equation 5); for Kd: FTSA, pH 7.0, 37 °C, read-out: Observed Dissociation Constant (Kd_obs), CAIII
T5 construct: made in house; host or cells: E. coli
T5 sequence (P07451 whole entry): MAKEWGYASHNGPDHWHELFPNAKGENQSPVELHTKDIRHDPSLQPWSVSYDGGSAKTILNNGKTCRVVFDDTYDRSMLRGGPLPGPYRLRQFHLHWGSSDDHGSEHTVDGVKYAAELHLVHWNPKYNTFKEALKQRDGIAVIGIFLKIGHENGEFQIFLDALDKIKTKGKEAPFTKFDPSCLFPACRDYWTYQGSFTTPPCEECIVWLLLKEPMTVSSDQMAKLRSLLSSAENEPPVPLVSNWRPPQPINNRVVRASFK

CAIV = biological target: T6, CAIV (Homo sapiens, UniProt P22748); assay: Fluorescent thermal shift assay (FTSA), CAIV; assay type: binding; conditions: for Intrinsic Gibbs energy change (ΔGint), CAIV: 37 °C, calculated (Equation 5); for Kd: FTSA, pH 7.0, 37 °C, read-out: Observed Dissociation Constant (Kd_obs), CAIV;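 for all read-outs here: recombinant human enzyme, thermal denaturation followed by ANS fluorescence, melting temperature versus ligand concentration fitted for Kd_obs, intrinsic value corrected for deprotonated sulfonamide and Zn-bound water fractions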
T6 construct: made in house; host or cells: E. coli
T6 sequence (P22748 19-312): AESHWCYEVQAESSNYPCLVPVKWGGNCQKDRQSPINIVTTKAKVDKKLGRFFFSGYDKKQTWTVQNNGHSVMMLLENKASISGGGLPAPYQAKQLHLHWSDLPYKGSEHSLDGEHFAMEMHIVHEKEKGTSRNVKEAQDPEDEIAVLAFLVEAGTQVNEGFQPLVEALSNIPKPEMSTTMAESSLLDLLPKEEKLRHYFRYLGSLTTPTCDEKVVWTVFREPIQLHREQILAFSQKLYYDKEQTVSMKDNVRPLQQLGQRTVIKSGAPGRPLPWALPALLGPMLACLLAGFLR
Protocol: as §1, §2, §3, §4, §5

CAII = biological target: T7, CAII (Homo sapiens, UniProt P00918); assay: biochemical; assay type: binding; conditions: for Intrinsic Gibbs energy change (ΔGint), CAII: 37 °C, calculated (Equation 5); for Kd: FTSA, pH 7.0, 37 °C, read-out: Observed Dissociation Constant (Kd_obs), CAII
T7 construct: made in house; host or cells: E. coli
Protocol: as §1, §2, §6, §4, §5

CAXIII [2] = biological target: T3, CAXIII; conditions: 37 °C; calculated (Equation 5)
CAIX = biological target: T8, CAIX (Homo sapiens, UniProt Q16790); assay: biochemical; assay type: binding; conditions: for Intrinsic Gibbs energy change (ΔGint), CAIX: 37 °C, calculated (Equation 5); for Kd: FTSA, pH 7.0, 37 °C, read-out: Observed Dissociation Constant (Kd_obs), CAIX
T8 construct: made in house

CAVB = biological target: T9, CAVB (Homo sapiens, UniProt Q9Y2D0); assay: Fluorescent thermal shift assay (FTSA), CAVB; assay type: binding; conditions: for Intrinsic Gibbs energy change (ΔGint), CAVB: 37 °C, calculated (Equation 5); for Kd: FTSA, pH 7.0, 37 °C, read-out: Observed Dissociation Constant (Kd_obs), CAVB
T9 construct: made in house; host or cells: E. coli
T9 sequence (Q9Y2D0 34-317): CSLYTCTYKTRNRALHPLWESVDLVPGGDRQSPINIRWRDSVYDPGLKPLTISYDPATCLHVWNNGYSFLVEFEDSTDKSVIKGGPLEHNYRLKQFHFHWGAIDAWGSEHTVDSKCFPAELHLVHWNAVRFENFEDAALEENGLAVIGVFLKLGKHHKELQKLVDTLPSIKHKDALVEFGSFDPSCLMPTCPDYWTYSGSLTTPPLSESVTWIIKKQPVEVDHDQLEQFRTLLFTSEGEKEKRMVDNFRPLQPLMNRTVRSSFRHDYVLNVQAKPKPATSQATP
Protocol: as §1, §2, §3, §4, §5

CAVII = biological target: T10, CAVII (Homo sapiens, UniProt P43166); assay: Fluorescent thermal shift assay (FTSA), CAVII; assay type: binding; conditions: for Intrinsic Gibbs energy change (ΔGint), CAVII: 37 °C, calculated (Equation 5); for Kd: FTSA, pH 7.0, 37 °C, read-out: Observed Dissociation Constant (Kd_obs), CAVII
T10 construct: made in house; host or cells: E. coli
T10 sequence (P43166 whole entry): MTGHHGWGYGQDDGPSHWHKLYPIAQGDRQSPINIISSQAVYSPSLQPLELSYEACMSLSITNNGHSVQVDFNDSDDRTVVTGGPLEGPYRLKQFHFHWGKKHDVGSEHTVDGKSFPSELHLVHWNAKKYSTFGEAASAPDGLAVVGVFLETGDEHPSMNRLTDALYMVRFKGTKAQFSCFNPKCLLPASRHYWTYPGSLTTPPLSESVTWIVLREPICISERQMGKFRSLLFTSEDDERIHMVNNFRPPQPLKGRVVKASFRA
Protocol: as §1, §2, §3, §4, §5

CAVA = biological target: T11, CAVA (Homo sapiens, UniProt P35218); assay: Fluorescent thermal shift assay (FTSA), CAVA; assay type: binding; conditions: for Kd: FTSA, pH 7.0, 37 °C, read-out: Observed Dissociation Constant (Kd_obs), CAVA
T11 construct: made in house; host or cells: E. coli
T11 sequence (P35218 39-305): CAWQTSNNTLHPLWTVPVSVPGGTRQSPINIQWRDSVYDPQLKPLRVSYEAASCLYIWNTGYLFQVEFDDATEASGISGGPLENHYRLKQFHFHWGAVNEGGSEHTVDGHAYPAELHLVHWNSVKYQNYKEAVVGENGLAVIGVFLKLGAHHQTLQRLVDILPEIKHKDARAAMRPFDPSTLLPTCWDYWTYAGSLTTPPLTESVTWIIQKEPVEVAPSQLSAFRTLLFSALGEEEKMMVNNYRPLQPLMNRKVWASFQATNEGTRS
Protocol: as §1, §2, §3, §4, §5

CAXIV = biological target: T12, CAXIV (Homo sapiens, UniProt Q9ULX7); assay: Fluorescent thermal shift assay (FTSA), CAXIV; assay type: binding; conditions: for Intrinsic Gibbs energy change (ΔGint), CAXIV: 37 °C, calculated (Equation 5); for Kd: FTSA, pH 7.0, 37 °C, read-out: Observed Dissociation Constant (Kd_obs), CAXIV;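 for all read-outs here: recombinant human CA XIV from E. coli, ANS-based thermal shift: Kd_obs fitted from melting temperature versus ligand concentration, ΔGint from Kd_obs corrected for deprotonated sulfonamide and Zn-water fractions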
T12 construct: made in house; host or cells: E. coli
T12 sequence (Q9ULX7 16-337): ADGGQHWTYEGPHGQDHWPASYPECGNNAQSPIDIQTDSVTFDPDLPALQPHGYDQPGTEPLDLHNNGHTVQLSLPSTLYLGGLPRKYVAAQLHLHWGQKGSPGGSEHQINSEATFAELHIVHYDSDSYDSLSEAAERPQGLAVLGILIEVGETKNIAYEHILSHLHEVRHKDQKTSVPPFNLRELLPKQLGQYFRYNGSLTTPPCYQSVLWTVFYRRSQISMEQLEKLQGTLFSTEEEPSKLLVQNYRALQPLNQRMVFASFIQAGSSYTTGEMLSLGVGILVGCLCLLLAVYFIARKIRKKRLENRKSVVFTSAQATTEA
Protocol: as §1, §2, §3, §4, §5

[3] = Determination of compound sulfonamide group pKa (UV-Vis spectra at different pH); assay type: physicochemical
Protocol: To calculate the intrinsic thermodynamic parameters of compound binding to CA isozymes, the pKa values of the sulfonamide group and the water molecule bound to the Zn(II) ion at the active site of CA proteins had to be determined. The pKa values for CA isozyme-bound water molecules were taken from, CAI—8.1; CAII—6.9; CAIII—6.5; CAIV—6.6; CAVA—6.7; CAVB—7.0; CAVI—6.0; CAVII—6.8; CAIX—6.6; CAXII—6.8; CAXIII—8.0; CAXIV—6.1. […] The pKa values were calculated as described previously in [28, 52] by normalizing the absorbance, plotting it as a function of pH, then fitting to the Henderson–Hasselbalch equation using the least square method (Figure S105).
Since the pKa values were only able to be measured for compound group 26–36, due to universal buffer pH limitations, intrinsic thermodynamic parameters were not calculated for compounds 2(a,b)–25(a,b), only for compounds 26–36 using experimentally obtained pKa values when possible and using the average pKa value mentioned above for compounds not measured.

[4] = universal buffer, spectrophotometric, 37 °C, read-out: Sulfonamide pKa
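Throughout, for Observed Dissociation Constant (Kd obs), CAXII: recombinant CAXII made in E. coli, ANS-fluorescence thermal shift with affinity fitted from Tm versus ligand concentration, intrinsic energy from Kd_obs corrected for deprotonated sulfonamide and Zn-water fractions.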

| Structure (SMILES) | Kd (CAXII) [nM] | melting point [°C] | Kd (CAVI) [nM] | Kd (CAXIII [1]) [nM] | Kd (CAI) [nM] | Kd (CAIII) [nM] | Kd (CAIV) [nM] | Kd (CAII) [nM] | Kd (CAIX) [nM] | Kd (CAVB) [nM] | Kd (CAVII) [nM] | Kd (CAVA) [nM] | Kd (CAXIV) [nM] | Intrinsic Gibbs energy change (ΔGint), CAXII (CAXII) [kcal/mol] | Intrinsic Gibbs energy change (ΔGint), CAVI (CAVI) [kcal/mol] | Intrinsic Gibbs energy change (ΔGint), CAI (CAI) [kcal/mol] | Intrinsic Gibbs energy change (ΔGint), CAIV (CAIV) [kcal/mol] | Intrinsic Gibbs energy change (ΔGint), CAII (CAII) [kcal/mol] | Intrinsic Gibbs energy change (ΔGint), CAXIII (CAXIII [2]) [kcal/mol] | Intrinsic Gibbs energy change (ΔGint), CAIX (CAIX) [kcal/mol] | further results |
| --- | --- | --- | --- | --- | --- | --- | --- | --- | --- | --- | --- | --- | --- | --- | --- | --- | --- | --- | --- | --- | --- |
| Cc1csc(N(CCC(=O)O)c2ccc(S(N)(=O)=O)cc2)n1 [Compound 27, 3-((4-Methylthiazol-2-yl)(4-sulfamoylphenyl)amino)propanoic acid] | 180 | 162 to 163 | 18000 | 870 | 67 | 63000 | 1400 | 220 | 48 | 560 | 250 | ≥ 200000 | 170 | -15 | -13 | -15 | -13.9 | -14.7 | -13.5 | -16 | Intrinsic Gibbs energy change (ΔGint), CAIII (CAIII): -11.6 kcal/mol; Intrinsic Gibbs energy change (ΔGint), CAVB (CAVB): -14.1 kcal/mol; Intrinsic Gibbs energy change (ΔGint), CAVII (CAVII): -14.7 kcal/mol; Intrinsic Gibbs energy change (ΔGint), CAXIV (CAXIV): -15.8 kcal/mol; pKa [3, 4]: 10.4 |
| NS(=O)(=O)c1ccc(N(CCC(=O)O)c2nc(-c3ccc(Cl)cc3)c(Cl)s2)cc1 [Compound 36, 3-((5-Chloro-4-(4-chlorophenyl)thiazol-2-yl)(4-sulfamoylphenyl)amino)propanoic acid] | 120 | – | 6300 | 23 to 40 | 20 | 17000 | 3300 | 23 to 40 | 23 | 400 | 33 | ≥ 200000 | – | -14.9 | -13.4 | -15.5 | -13.1 | -15.5 | -15.1 | -16.1 | Intrinsic Gibbs energy change (ΔGint), CAIII (CAIII): -12.2 kcal/mol; Intrinsic Gibbs energy change (ΔGint), CAVB (CAVB): -14 kcal/mol; Intrinsic Gibbs energy change (ΔGint), CAVII (CAVII): -15.7 kcal/mol; Intrinsic Gibbs energy change (ΔGint), CAVA (CAVA; 37 °C, calculated (Equation 5)): ≤ -10.4 kcal/mol; Intrinsic Gibbs energy change (ΔGint), CAXIV (CAXIV): -15.6 kcal/mol; pKa [3, 4]: 10.2 |
| CCOC(=O)c1sc(N(CCC(=O)NN)c2ccc(S(N)(=O)=O)cc2)nc1C [Compound 33] | 26000 | 206 to 207 | 25000 | 830 | 3100 | ≥ 200000 | 2800 | 500 | 630 | 100 | 1100 | ≥ 200000 | 910 | -11.5 | -12.4 | -12.2 | -13 | -13.8 | -13.1 | -14 | Intrinsic Gibbs energy change (ΔGint), CAVB (CAVB): -14.7 kcal/mol; Intrinsic Gibbs energy change (ΔGint), CAVII (CAVII): -13.4 kcal/mol; Intrinsic Gibbs energy change (ΔGint), CAXIV (CAXIV): -14.3 kcal/mol; pKa ([3]; value marked *: average of measured compounds, used for calculation, read-out: Sulfonamide pKa (not determined, average of all measured compounds)): 10.1 |
| NS(=O)(=O)c1ccc(NCC(CC(=O)NNC(=S)Nc2ccccc2)C(=O)NNC(=S)Nc2ccccc2)c(Cl)c1 (stereo not shown) [Compound 23b, 2,2′-(2-(((2-Chloro-4-sulfamoylphenyl)amino)methyl)succinyl)bis(N-phenylhydrazine-1-carbothioamide)] | 50 | 158 to 159 | 1000 | 400 | 67 | 15000 | 1000 | 50 | 33 | 1100 | 110 | 20000 | 50 | – | – | – | – | – | – | – | – |
| CNC(=S)NNC(=O)CC(CNc1ccc(S(N)(=O)=O)cc1)C(=O)NNC(=S)NC (stereo not shown) [Compound 22a, 2,2′-(2-(((4-Sulfamoylphenyl)amino)methyl)succinyl)bis(N-methylhydrazine-1-carbothioamide)] | 11000 | 192 to 193 | 13000 | 33000 | 50000 | ≥ 200000 | 6700 | 2500 | 330 | 25000 | 10000 | 33000 | 3300 | – | – | – | – | – | – | – | – |

Second part, led by results:

| Kd (CAXII) [nM] | melting point [°C] | Kd (CAVI) [nM] | Kd (CAXIII [1]) [nM] | Kd (CAI) [nM] | Kd (CAIII) [nM] | Kd (CAIV) [nM] | Kd (CAII) [nM] | Kd (CAIX) [nM] | Kd (CAVB) [nM] | Kd (CAVII) [nM] | Kd (CAVA) [nM] | Kd (CAXIV) [nM] | Structure (SMILES) | Intrinsic Gibbs energy change (ΔGint), CAXII (CAXII) [kcal/mol] | Intrinsic Gibbs energy change (ΔGint), CAVI (CAVI) [kcal/mol] | Intrinsic Gibbs energy change (ΔGint), CAI (CAI) [kcal/mol] | Intrinsic Gibbs energy change (ΔGint), CAIV (CAIV) [kcal/mol] | Intrinsic Gibbs energy change (ΔGint), CAII (CAII) [kcal/mol] | Intrinsic Gibbs energy change (ΔGint), CAXIII (CAXIII [2]) [kcal/mol] | Intrinsic Gibbs energy change (ΔGint), CAIX (CAIX) [kcal/mol] | further results |
| --- | --- | --- | --- | --- | --- | --- | --- | --- | --- | --- | --- | --- | --- | --- | --- | --- | --- | --- | --- | --- | --- |
| 14000 | 195 to 196 | 10000 | 220 | 670 | ≥ 200000 | 1000 | 150 | 170 | 120 | 250 | ≥ 200000 | 1000 | CCOC(=O)c1sc(N(CCC(=O)NN=Cc2ccccc2)c2ccc(S(N)(=O)=O)cc2)nc1C [Compound 34, Ethyl 2-((3-(2-Benzylidenehydrazineyl)-3-oxopropyl)(4-sulfamoylphenyl)amino)-4-methylthiazole-5-carboxylate] | – | – | – | – | – | – | – | – |
| 2200 | 212 to 213 | 3300 | 1700 | 3300 | ≥ 200000 | 2000 | 400 | 100 | ≥ 200000 | 670 | 6700 | 130 | CNC(=S)NNC(=O)CC(CNc1ccc(S(N)(=O)=O)cc1Cl)C(=O)NNC(=S)NC (stereo not shown) [Compound 22b] | – | – | – | – | – | – | – | – |
| 630 | 175 to 176 | 200 | 400 | 170 | 5000 | 1400 | 25 | 25 | 1400 | 170 | 38000 | 25 | NS(=O)(=O)c1ccc(NCC(Cc2n[nH]c(=S)n2-c2ccccc2)c2n[nH]c(=S)n2-c2ccccc2)c(Cl)c1 (stereo not shown) [Compound 25b, 4-((2,3-bis(4-Phenyl-5-thioxo-4,5-dihydro-1H-1,2,4-triazol-3-yl)propyl)amino)-3-chlorobenzenesulfonamide] | – | – | – | – | – | – | – | – |
| 13000 | 201 to 202 | 20000 | 2900 | 5000 | ≥ 200000 | 2000 | 500 | 100 | 3300 | 10000 | 22000 | 330 | Cc1cc(C)n(C(=O)CC(CNc2ccc(S(N)(=O)=O)cc2Cl)C(=O)n2nc(C)cc2C)n1 (stereo not shown) [Compound 20, 3-Chloro-4-((4-(3,5-dimethyl-1H-pyrazol-1-yl)-2-(3,5-dimethyl-1H-pyrazole-1-carbonyl)-4-oxobutyl)amino)benzenesulfonamide] | – | – | – | – | – | – | – | – |
